For series [1], the target named is T1, PTP1B (Homo sapiens, UniProt P18031).
T1 construct: made in house
T1 sequence (P18031 1-435): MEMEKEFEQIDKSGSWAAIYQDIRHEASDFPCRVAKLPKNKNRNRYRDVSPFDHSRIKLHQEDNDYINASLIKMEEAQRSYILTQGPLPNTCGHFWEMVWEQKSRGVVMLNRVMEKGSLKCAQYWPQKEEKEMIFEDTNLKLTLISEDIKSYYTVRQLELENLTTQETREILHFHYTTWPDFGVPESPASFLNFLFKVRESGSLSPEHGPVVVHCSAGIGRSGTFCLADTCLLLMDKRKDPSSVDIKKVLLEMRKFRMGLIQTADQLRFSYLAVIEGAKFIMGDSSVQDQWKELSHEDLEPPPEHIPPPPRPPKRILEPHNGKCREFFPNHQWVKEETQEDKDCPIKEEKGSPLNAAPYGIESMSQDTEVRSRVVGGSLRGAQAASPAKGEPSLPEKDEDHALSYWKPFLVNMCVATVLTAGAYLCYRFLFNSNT
As to the kind of experiment: pNPP hydrolysis by PTP1B. The class given is biochemical. The note with it: for IC50: substrate pNPP. The protocol:
The catalytic domain of human Eyes Absent 2 was similarly sub-cloned as a poly-histidine fusion construct in the vector pDEST-527. Fusion protein was purified by Ni-NTA chromatography and followed by size-exclusion chromatography over a Superdex-75 column. The relative purity of protein samples was determined using SDS-PAGE. PTP1B was purified as described previously.
(§1) Compounds were dissolved in DMSO and diluted as needed. […] Reactions were incubated at 30°C for 30 minutes and quenched with 100 mM EDTA pH 10. IC50 values were then calculated directly from regression curves using PRISM. All reported values are the mean of two independent experiments.

Series [2] concerns the target T2, Eya3(ED) (Mus musculus, UniProt P97480).
T2 construct: The catalytic domain (ED) of mouse Eyes Absent 3 (Eya3(223–510)) was purified; made in house
T2 sequence (P97480 223-510): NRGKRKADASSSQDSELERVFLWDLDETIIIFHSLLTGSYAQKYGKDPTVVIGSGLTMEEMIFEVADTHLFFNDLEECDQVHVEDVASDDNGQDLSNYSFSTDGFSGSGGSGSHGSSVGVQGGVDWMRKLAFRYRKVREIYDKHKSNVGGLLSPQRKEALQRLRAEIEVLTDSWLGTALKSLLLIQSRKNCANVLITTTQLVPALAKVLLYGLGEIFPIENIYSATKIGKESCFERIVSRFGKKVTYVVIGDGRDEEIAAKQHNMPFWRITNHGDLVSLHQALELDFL
The experiment in a line: pNPP hydrolysis by the catalytic domain of Eya3. The series is classed as biochemical. The note with it: substrate pNPP 3.4 mM, pH 6, 30°C, 30 minutes.
Text: The catalytic domain (ED) of mouse Eyes Absent 3 (Eya3(223–510)) was purified as described before. Human Eyes Absent 3 isoform 2 (representing the major species identified in human cell lines by mass spectrometry and residues 127–573 of NM_001990, isoform 1) was sub-cloned into pDEST565 to express a poly-histidine- Glutathione-S-transferase (His-GST) tagged fusion protein with a TVMV protease site. The protein was purified by glutathione-S-transferase affinity chromatography followed by TVMV cleavage, Ni-NTA chromatography, and finally size exclusion chromatography.
The NCI Diversity Set II was obtained from the NCI in 96-well trays from the NIH Molecular Libraries Program and stored as 10 mM stocks in DMSO. An initial manual screen was conducted using the previously described p-nitrophenylphosphate assay and mouse Eya3(223–510) in a reaction mixture containing 20 mM MES pH 6, 2 mM MgCl2, 125 μM inhibitor, 3.4 mM para-nitrophenol phosphate (pNPP) and 0.01 μg/µL enzyme.
as §1

Series [3] deals with T3, human EYA3 (Homo sapiens, UniProt Q99504).
T3 construct: residues 127–573 of NM_001990, isoform 1; His-GST (poly-histidine, glutathione-S-transferase) with TVMV protease site (cleaved yes); made in house
T3 sequence (Q99504 127-573): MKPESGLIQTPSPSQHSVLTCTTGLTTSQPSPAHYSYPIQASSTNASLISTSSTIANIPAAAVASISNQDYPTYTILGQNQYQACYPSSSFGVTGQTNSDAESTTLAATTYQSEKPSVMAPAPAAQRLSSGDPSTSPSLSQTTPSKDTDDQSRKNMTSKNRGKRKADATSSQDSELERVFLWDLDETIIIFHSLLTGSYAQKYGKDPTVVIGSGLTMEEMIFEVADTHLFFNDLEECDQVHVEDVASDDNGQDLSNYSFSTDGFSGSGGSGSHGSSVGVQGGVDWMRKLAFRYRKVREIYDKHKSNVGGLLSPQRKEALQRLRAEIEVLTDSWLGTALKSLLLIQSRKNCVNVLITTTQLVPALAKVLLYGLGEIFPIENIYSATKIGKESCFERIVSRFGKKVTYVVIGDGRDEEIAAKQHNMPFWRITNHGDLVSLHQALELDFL
The experiment in a line: pNPP hydrolysis by full-length EYA3. The class given is biochemical. The note with it: full-length human EYA3, substrate pNPP.
Text: The catalytic domain (ED) of mouse Eyes Absent 3 (Eya3(223–510)) was purified as described before. Human Eyes Absent 3 isoform 2 (representing the major species identified in human cell lines by mass spectrometry and residues 127–573 of NM_001990, isoform 1) was sub-cloned into pDEST565 to express a poly-histidine- Glutathione-S-transferase (His-GST) tagged fusion protein with a TVMV protease site. The protein was purified by glutathione-S-transferase affinity chromatography followed by TVMV cleavage, Ni-NTA chromatography, and finally size exclusion chromatography. […]
as §1

For series [4] the following is noted: cited from earlier work.
In series [5] the test system is mouse aortic rings. The experiment in a line: Mouse aortic ring assay (ex vivo sprouting angiogenesis, VEGF-stimulated). The conditions noted are these: 5 μM, 10 days. The protocol: The preparation of rat collagen and the aortic ring assay were carried out as previously described, [50]. Mice were 4 to 6 week old female C57BL/6, and aortic ring explants were cultured at 37°C in a humidified incubator under a 5% CO2 atmosphere.
Each inhibitor was serially diluted (between 0.25 mM and 7.5 mM) to stocks of 1000× the working concentrations in sterile 100% DMSO in order to achieve an equal final concentration of DMSO (0.1% v/v) in all culture conditions. For the experiments, the compounds were diluted in EBM containing 2.5% FBS, penicillin/streptomycin and 20 ng/ml VEGF165 (R&D Systems, Minneapolis, MN). Each compound was applied from the first day of culture over a 10-day period with medium change every two days. In all experiments, the vehicle (DMSO, 0.1%) was used as control. The sprouting density was derived from counting the number of branches per ring, and the extent of angiogenic sprouting was estimated by measuring the total surface area covered by the vessels.

In series [6] the test system is HUVECs. The experiment in a line: HUVEC tubulogenesis assay on Matrigel. The class given is cell-based, human. The note with it: up to 7.5 μM. As to the method:
Tubulogenesis assays were performed in 15-well micro-slide (ibidi LLC, Verona WI), using growth factor-reduced matrigel (BD Bioscience, Billerica, MA). The matrix was prepared by loading 10 μl of matrigel in each micro-slide well and allowing it to solidify for 30 minutes at 37°C. HUVECs were trypsinized and resuspended at 100,000 cell/ml in EBM +2.5% FBS. 50 μl (5,000 cell) were loaded on top of the solidified matrigel and the preparation was incubated for 20 hours at 37°C in a humidified incubator in a 5% CO2 atmosphere. Bright field images were taken using an inverted microscope at 2.5× magnification, which allowed imaging of the whole well in two pictures that were later merged in Photoshop. Tubular structures were traced and counted using NeuroJ (NIH, USA). In experiments with inhibitor, the inhibitor was added to the cell suspension before loading. Each sample was loaded in triplicate, and each treatment was repeated for reproducibility.

For series [7], the system named is HUVECs. As to the kind of experiment: HUVEC transwell migration. The series is classed as cell-based, human. The note with it: 5 μM. As to the method: (§2) Human umbilical vein endothelial cells (HUVECs) were purchased from Lonza (Walkersville, MD) and maintained in the endothelial cell growth medium (PromoCell, Heidelberg, Germany), under a 5% CO2 atmosphere. MCF10A cells from ATCC were stably transfected with either pcDNA 3.2/V5-DEST (vector control), V5-EYA2 or V5-EYA2(mut). Transwell migration experiments were performed as previously described.

In series [8] the test system is MCF10A-EYA2 cells. As to the kind of experiment: Transwell migration of MCF10A cells over-expressing EYA2. The class given is cell-based. The conditions noted are these: 7.5 μM. The protocol:
as §2

The subject of series [9] is zebrafish embryos. As to the kind of experiment: Analysis of zebrafish vasculature, Tg(kdrl:EGFP) embryos. The series is classed as in vivo. The conditions noted are these: exposure from about 5 hpf, analysis at 28–30 hpf. The protocol:
Tg(kdrl:EGFP)^s843 zebrafish line was used for vascular analysis. Embryos were maintained in fish water until the 50% epiboly stage (5.25 hpf) and were transferred into wells of 24-well plate containing the inhibitors in fish water. All incubation was performed at 28.5°C. The analysis for vascular defects was performed at the 28–30 hpf stages, and embryos were imaged using a fluorescence microscope.

Results on ten molecules are retold here after article PMC3335822 (PLoS ONE, 2012).

Each structure is given as a SMILES string. Where only a bound is given, the exact number is not on record here.

In general, IC50 refers to the concentration that gives 50% inhibition. Low readings indicate inhibition by little substance, high ones a need for much substance. One may read the half-life as the time in which the quantity being followed falls by half.

For the molecule `CC(=O)c1cc(Br)c(O)c(Br)c1O` [Compound 1i], the IC50 in series [1], in series [2] and in [3] was more than 150 µM each time.

`COc1ccc(C(=O)c2coc3ccc(O)cc23)cc1` [Compound 1e]: the IC50 in series [1], in series [2] and in series [3] was more than 150 µM throughout.

On to `CCc1oc2cc(O)ccc2c1C(=O)c1cc(Br)c(O)c(Br)c1` [6-hydroxybenzbromarone], for which the half-life in series [4] was 30 h.

As to `O=C(c1ccc(F)cc1)c1coc2ccc(O)cc12` [Compound 1d], the IC50 in series [1], in [2] and in series [3] was more than 150 µM throughout.

As for `CCCCc1oc2ccccc2c1C(=O)c1ccc(O)cc1` [Compound 1b], the “effect on sprouting of aortic rings” value in [5] was “shorter sprouts and significantly lower microvascular density”. Also, inhibition in series [1] was half-maximal at 71.4 µM (IC50). Moreover, the “effect on tubulogenesis, in words” value in series [6] was “effective only at the highest concentrations tested (7.5 μM)”. Also, the “effect on HUVEC cell motility” value in series [7] is recorded as “attenuated HUVEC cell motility”. Moreover, in series [8], the “effect on migration of MCF10A(EYA2) cells” value was “significantly inhibited cell migration”. Besides, the “effect on the developing vasculature” value in series [9] is “reduced the number of intersegmental vessels, but were less potent”.

For the molecule `COc1ccc(CC(=O)c2ccc(O)cc2O)cc1` [Compound 1h], the IC50 in series [1], in series [2] and in series [3] was more than 150 µM throughout.

For `O=C(c1cc2ccccc2o1)c1coc2ccc(O)cc12` [Compound 1c], the “effect on sprouting of aortic rings” value in series [5] is on record as “negligible effect”. In addition, in series [1] (pNPP hydrolysis), the “selectivity EYA3 versus PTP1B, in words” value was “preferentially inhibited PTP1B”. Also, the results for the IC50 in series [1], in series [2] and in series [3] were 11.8 µM, more than 150 µM and more than 150 µM, respectively. In [8], the “effect on migration of MCF10A(EYA2) cells” value is recorded as “had no effect on cell motility”. Further, the “effect on the developing vasculature” value in [9] is “no effect on the vasculature”.

With `COc1ccc(OC)c(C(=O)c2coc3ccc(O)cc23)c1` [Compound 1f], the IC50 in [1] was 102 µM; in [2], more than 150 µM; in series [3], more than 150 µM.

Take `CC(=O)c1c(C)oc2ccc(O)cc12` [Compound 1g]: the IC50 in series [1], in [2] and in series [3] was more than 150 µM in each case.

Take `CCCCC(=O)c1ccc(O)cc1` [Compound 1j]: the IC50 in series [1], in series [2] and in [3] was more than 150 µM in each case.
